Reference: paper PMC3781220 (The Journal of organic chemistry, 2010)
Where two headings read alike, the source gives them in different places.

Tests used:
[1] = biological target: T1, recombinant yeast squalene synthase (Saccharomyces cerevisiae, UniProt P29704); format: biochemical; settings: for potency ratio of 2R,3S enantiomer over 2S,3R enantiomer, absence of PPi: no added PPi
T1 sequence (P29704 1-420 limits assumed): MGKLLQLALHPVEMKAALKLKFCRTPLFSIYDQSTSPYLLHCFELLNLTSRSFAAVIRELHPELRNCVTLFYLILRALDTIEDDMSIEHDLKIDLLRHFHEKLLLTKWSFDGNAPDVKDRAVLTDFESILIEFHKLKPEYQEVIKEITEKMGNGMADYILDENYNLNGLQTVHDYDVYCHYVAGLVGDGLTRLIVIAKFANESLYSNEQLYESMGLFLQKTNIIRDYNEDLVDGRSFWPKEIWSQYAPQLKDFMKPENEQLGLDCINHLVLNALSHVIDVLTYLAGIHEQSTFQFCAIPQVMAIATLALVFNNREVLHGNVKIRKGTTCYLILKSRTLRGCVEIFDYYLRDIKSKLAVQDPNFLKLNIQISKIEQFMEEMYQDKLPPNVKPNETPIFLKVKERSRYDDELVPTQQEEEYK

[2] = biological target: T1, recombinant yeast squalene synthase; settings: cited from earlier work

SMILES: CC(C)=CCC/C(C)=C/CCCCN1[C@H](COP(=O)([O-])OP(=O)([O-])[O-])[C@@]1(C)CC/C=C(\C)CCC=C(C)C.CCCC[N+](CCCC)(CCCC)CCCC.CCCC[N+](CCCC)(CCCC)CCCC.CCCC[N+](CCCC)(CCCC)CCCC (relative stereo) [(2R,3S)-6-OPP, (2R,3S)-trans-[2-((E)-4,8-Dimethyl-3,7-nonadienyl)-1-((E)-6, 10-dimethyl-5,9-undecadienyl)-2-methylaziridin-3-yl]methyl Diphosphate, Tris (tetrabutylammonium) Salt]
- potency ratio of 2R,3S enantiomer over 2S,3R enantiomer, presence of PPi ([1]; 1.5 mM PPi): 4 fold
- synergistic effect of the PPi additive on inhibition ([1]; IC50 −PPi versus +PPi): almost no change
- potency ratio of 2R,3S enantiomer over 2S,3R enantiomer, absence of PPi [1]: about 16 fold
- potency ratio of 2R,3S enantiomer over 2S,3R enantiomer, absence of PPi ([1]; listed as 2R,3S enantiomer): 16 fold
- IC50 ([1]; read-out: IC50, +PPi, 1.5 mM PPi added, pH 7.2, 100 μM [3H]FPP, ± standard error): 1.17 ± 0.08 µM

SMILES: CC(C)=CCC/C(C)=C/CC/C(C)=C/C1C(COP(=O)(O)OP(=O)(O)O)C1(C)CC/C=C(\C)CCC=C(C)C (stereo in doubt) [PSPP, presqualene diphosphate]
- Ki ([2]; read-out: Ki PSPP, affinity of intermediate for the enzyme): 75 ± 20 µM

SMILES: CC(C)=CCC/C(C)=C/CC/C(C)=C/COP(=O)(O)OP(=O)(O)O [FPP, (E,E)-farnesyl diphosphate, reference compound]
- Km ([1]; read-out: Km for FPP, substrate constant given with the Ki experiment): 20 µM
- S0.5 FPP ([2]; affinity of substrate for the enzyme): 19 ± 6 µM
